Patent publication US5141959A, “Isoprenoid phospholipase A2 inhibitors and preparations comprising same” (Bristol-Myers Squibb Company, priority 1990, dated 1992)

Experiments:
human platelet PLA2 = molecular target: T1, human platelet PLA2 (Homo sapiens, UniProt P14555); assay: PLA2 Inhibition Assay (14C-oleate labeled E. coli membrane substrate); type: biochemical; settings: preincubation 7 min, incubation 30 min, 37° C., pH 7; unit inferred; read-out: IC50 for inhibition of human platelet phospholipase A2
T1 construct: The enzyme was isolated from human platelets; from tissue; host or cells: human platelets
T1 sequence (P14555 21-144): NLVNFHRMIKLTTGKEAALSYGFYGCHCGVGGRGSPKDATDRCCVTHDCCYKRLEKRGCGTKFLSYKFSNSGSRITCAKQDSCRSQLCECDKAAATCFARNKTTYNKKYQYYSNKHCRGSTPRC
Description: This assay is used to measure the inhibition of human platelet PLA2 by test compounds. The method used was similar to that reported by Franson et al. [Jesse RL and Franson RC, Biochem Biophys Acta, 575, 467-470 (1979)]. [Franson RC, Patriarca P and Elsback P, J Lipid Res 15, 380-388 (1974)]. The enzyme was isolated from human platelets. The substrate used consisted of ^14 C-oleate labeled E. coli membranes. E. Coli cells were grown in the presence of ^14 C-oleic acid and then autoclaved to prepare membranes. In the assay, various concentrations of test compounds are preincubated with PLA2 (7.5 μg/ml) in a buffer consisting of 25 mM HEPES (pH 7) 150 mM NaCl, 5.0 mM Cacl2, and 10% DMSO (test compound solvent) at 37° C. for 7 minutes. The E. coli membrane substrate is then added (0.1 mM phospholipid, 0.5 μCi/umol) and the reaction is incubated at 37° C. for 30 minutes. The final reaction volume is 0.1 ml. The reaction is quenched with tetrahydrofuran (1.9 ml), and the entire solution is applied to a solid-phase extraction column (aminopropylresin, Analytichem). […] The amount of free fatty acid product is determined by liquid scintillation counting. The amount of inhibition produced by the test compound is calculated by comparing the number of counts obtained in the presence of the compound to that obtained for the control reactions (test compound solvent only). […]

[1] = tested on: TPA-induced mouse ear edema; assay: Phorbol ester (TPA)-induced mouse ear inflammation assay: edema (ear weight); type: in vivo, CD-1 mice; settings: topical, six hours
Description: (§1) Anti-inflammatory activity of the test compounds was determined in the phorbol ester-induced mouse ear inflammation model. [Young J M, Wagner B M and Spires D A, J Invest Dermatol, 80, 48-52 (1983)]. In this assay, an inflammatory reaction is induced by the topical application of 0.01% (w/v) tetradecanoylphorbol-13-acetate (TPA) to the ears of CD-1 mice. An acute inflammatory reaction results in which the ears swell and inflammatory cells infiltrate the ear tissue. TPA, with and without various concentrations of test compound, was applied to the inner and outer aspects of the ears (10 μl/surface). After six hours, the mice were sacrificed and the ears were removed. Ear tissue punches (5/16") were taken from each ear and weighed to measure edema. The ear punches were then processed for the determination of neutrophil accumulation by measurement of myeloperoxidase (MPO) activity by the method of Bradley et al. [Bradley P P et al, J Invest Dermatol, 78, 206-209 (1982)]. MPO is a specific marker for the presence of neutrophils in tissue.
(§2) The anti-inflammatory activity produced by the test compound is calculated by comparing the edema or MPO values obtained for the drug-treated ears to those obtained for non-drug treated ears. Percent inhibition values were determined by the equation: [formula] […] The ED50 is estimated to be 0.8%.

[2] = tested on: myeloperoxidase (MPO) activity; assay: Phorbol ester (TPA)-induced mouse ear inflammation assay: cell infiltration (neutrophil accumulation by myeloperoxidase activity); type: in vivo, CD-1 mice; settings: topical, six hours
Description: as §1, §2

SMILES | IC50 (human platelet PLA2) [µM] | Blocking of TPA-induced mouse ear edema (in words) [1] | ED50, TPA-induced mouse ear edema ([1]; with TPA 0.01% (w/v)) [%] | Blocking of edema and cell infiltration (in words) ([2]; statement covers edema and cell infiltration) | ED50, inhibition of cell infiltration ([2]; with TPA 0.01% (w/v), MPO activity) [%]
CC1=C(/C=C/C(C)=C/C=C/C(C)=C/C(=O)O)C(C)(C)CCC1 [reference compound] | > 500 |  |  |  | 
CC1=C(/C=C/C(C)=C/C=C(/C(C)=C\C(=O)O)c2cccc(C(=O)O)c2)C(C)(C)CCC1 [Compound I, 13-CIS-12-(3'-CARBOXYPHENYL)RETINOIC ACID] | 40 | dose-dependently blocks TPA-induced mouse ear edema | ~0.8 | effectively blocks edema and cell infiltration | < 0.1
